Source: article PMC5751205, “Rapid Non-Enzymatic Glycation of the Insulin Receptor under Hyperglycemic Conditions Inhibits Insulin Binding In Vitro: Implications for Insulin Resistance” (International Journal of Molecular Sciences, 2017)
Where two headings read alike, the source gives them in different places. No end group written: not given here.

Tests used:
[1] = ref [41],[42], cited from earlier work
Description: Table 1 Table summarizing experiments to identify motifs determining insulin-receptor (IR) peptide glycation and whether glycation of IR peptides results in inhibition of insulin binding to these peptides. Specifically, this table provides binding constants glucose binding non-covalently to various insulin receptor (IR) peptides; glycation of the same IR peptides at 20 mM glucose for six days; the | column: Glucose Binding Kd (mM)

insulin-HRP [2] = target: T1, insulin-HRP (Homo sapiens, UniProt P01308); experiment: Insulin-HRP binding to IR peptides (ELISA plate, ABTS read-out); conditions: Ins-HRP at 10 nM, IR peptide in the absence of glycation
Description: (§1) Each peptide was held constant at 0.1 mg/mL in pH 7.4 phosphate-buffered saline, and 100 μL aliquots were pipetted into rows of a Costar high-binding ELISA plate and incubated for an hour. The plate was washed 3× with 0.1% Tween 20 (Sigma-Aldrich) in 0.05 M phosphate buffered saline (PBS). Two hundred µL 2% polyvinyl alcohol in PBS were added to each well and incubated 1 h. The plates were then washed 3× again with 0.1% Tween 20. A solution of insulin conjugated to horse-radish peroxidase (HRP), 0.83 µg in 1.0 mL PBS, was made and serially diluted with PBS by thirds, ten times. These serial dilutions were added to the plate wells, incubated for an hour, and then washed 3× as before. Finally, 100 µL of stock ABTS [2,2′-azino-bis(3-ethylbenzothiazoline-6-sulphonic acid)] (Millipore, Burlington, MA, USA) was added to each well, incubated for thirty minutes, and the plate was then read on a SpectraMax Plus scanning microplate spectrophotometer at 405 nm. Controls wells lacking peptide but with PVA, INS-HRP and ABTS measured non-specific binding that was subtracted from the absorbance values of the rest of the wells. All experiments were run in triplicate and the averages of the corrected absorbances were then plotted against the concentration of the INS–HRP for each peptide to yield binding curves. Because binding curves are calculated by plotting differences, it was not possible to incorporate error bars into these curves.

insulin-HRP [3] = target: T1, insulin-HRP; experiment: Effect of glycation on insulin-HRP binding to IR peptides; conditions: for Ins-HRP Binding Inhibition (Glycated): change in Ins-HRP binding at 10 nM after exposure of the peptide to glycating conditions (six days at 20 mM glucose); for Change of INS-HRP binding to the peptide after glycation: 6-day exposure to 20 mM glucose, triplicate, averaged
Description: Insulin receptor peptides (Figure 1) were synthesized by RS Synthesis (Louisville, KY, USA) to at least 95% purity by high pressure liquid chromatography (HPLC) and mass spectrometry. Peptides or recombinant human insulin (rHu) (Lilly, Indianapolis, IN, USA) were dissolved in glucose-free, phenol-red-free, Dulbecco’s modified Eagle growth medium (DMEM) to 1 mg/mL. Stock 2.0 M D-glucose (Sigma-Aldrich, St. Louis, MO, USA) solutions were also made in DMEM. The peptide and glucose stocks were combined to yield final reaction solutions with peptides at 0.1 mg/mL and glucose at […]. Combinations were incubated at 36–38 °C for 1–6 days. Reactions were stopped and solutions were stored by freezing at −20 °C. Glycated peptides were desalted by centrifugal filtration through Ultrafree-MC 5 kda or Ultracel 3 kda filter units. Resulting retentate was resuspended in low ionic strength saline immediately before performing mass spectrometry.
as §1
The same technique just described in Section 4.3 was used to measure the effect of glycation on INS-HRP binding to IR peptides as above with one change: IR peptides were serially diluted instead of the INS-HRP, which was held constant. This methodological modification was made in order to reduce the amount of IR peptide required to obtain results. As in Section 4.3, each experiment was run in triplicate and the results averaged.

[4] = system: insulin receptor (IR), intact recombinant, glycated; experiment: Insulin binding to intact glycated insulin receptor by UV spectroscopy; conditions: IR incubated six days at 37 °C in 20 mM glucose, measured as decrease in absorbance
Description: (§2) Intact recombinant IR was obtained from Sigma-Aldrich (St. Louis, MO, USA) and utilized at 42.9 units/mL in phosphate buffered saline, pH 7.4 (PBS) or in PBS with 20 mM glucose added. PBS and 20 mM glucose solutions of IR were incubated for six days at 37 °C. An aliquot of each preparation was then subjected to centrifugal filtration and washing through Ultrafree-MC 5 kda or Ultracel 3 kda filter units. The resulting retentates were resuspended in PBS. In this way, identical preparations of unglycated IR and glycated IR were made in both PBS and in 20 mM gucose PBS. Microliter quantities of PBS buffer, or 20 mM glucose PBS, or human recombinant INS (Sigma-Aldrich, St. Louis, MO, USA) in PBS or 20 mM glucose PBS were then added serially to 100 µL of each of the four preparations of IR and to control wells containing only PBS or 20 mM glucose PBS. Experiments were carried out in a crystal 96-well plate and the serial combinations subjected to UV spectrophotometry to obtain their spectra. The spectra of the control wells were subtracted from the spectra of the experimental wells to yield expected values at each UV wavelength and differences between the controls and experimental values determined. […] Binding constants were determined from the concentration at which the binding curves inverted. […]

[5] = target: insulin receptor (IR), intact recombinant, unglycated; experiment: Insulin binding to intact unglycated insulin receptor by UV spectroscopy; conditions: one of two independent runs
Description: as §2

[6] = glucose binding non-covalently to the peptide, read-out: Glucose Binding Kd

T1 sequence (P01308 90-110): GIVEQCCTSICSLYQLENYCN
T1 sequence (P01308 25-54): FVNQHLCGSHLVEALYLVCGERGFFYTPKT

Substance	Kd [1, 6] [mM]	10 nM Ins-HRP Binding (Native) (insulin-HRP [2])	Ins-HRP Binding Inhibition (Glycated) (insulin-HRP [3])	Change of INS-HRP binding to the peptide after glycation (insulin-HRP [3])	also measured
H-TIDWSRILDS [157-166]	57	no	no		
H-TQGKLFFHYNPK [453-464]	57	no	no		
H-NLTVIRGSRLFFNY [105-118]	35	YES	YES	very significant loss of INS-HRP binding	
HLYFGEVCPGMDIRNN [28-43, synthetic insulin receptor peptide, residues 28-43 of human IR (UniProt P06213)]	50	no	no		
ENCSVIEGHLQ [51-61, synthetic insulin receptor peptide, residues 51-61 of human IR, insulin-like]	52	YES	YES	very significant loss of INS-HRP binding	Insulin-HRP binding after incubation of the peptide in 200 mM glucose (insulin-HRP [3]; 200 mM glucose, six days): nearly undetectable levels; Factor by which glycation reduces the insulin-HRP binding constant (insulin-HRP [3]; peptide incubated in 20 and 60 mM glucose over six days): approximately 2
ESEDSQKHNQSEYEDS [689-705, synthetic insulin receptor peptide, residues 689-705 of human IR]	63	no	no		
KTFEDYLHNVVFV [730-742, synthetic insulin receptor peptide, residues 730-742 of human IR]	60	no	no		
GMDIRNNLTRLHELE [37-51, synthetic insulin receptor peptide, residues 37-51 of human IR (UniProt P06213)]	40	no	no		
H-FRVYGLESLKDLF [91-103]	37	YES	YES	very significant loss of INS-HRP binding	
Insulin: recombinant human insulin (Lilly for glycation; Sigma-Aldrich for IR binding)	0.25				Decrease in amount of INS binding due to glycation of the IR, in 20 mM glucose ([4]; binding in PBS with 20 mM glucose): one third; Decrease in amount of INS binding due to glycation of the IR, in PBS ([4]; binding in PBS without glucose): one third; Kd ([1]; glucose binding non-covalently, second of two values printed for insulin, read-out: Glucose Binding Kd (mM), second value): 30 mM; Binding constant of unglycated INS for unglycated IR in 20 mM glucose ([5]; PBS pH 7.4 with 20 mM glucose): 110 µg/mL of INS; Binding constant of unglycated INS for unglycated IR in PBS ([5]; PBS pH 7.4 without glucose, concentration at which the binding curve inverted): 70 µg/mL of INS
